Patent US6875752B2, “Uridine derivatives as antibiotics” (Aventis Pharma S.A., priority 2001, dated 2005)

Tests used:
Test in all cases: Method of dilutions in a liquid medium (M.I.C.)
Type in all cases: cell-based
E. faecium = E. faecium strains; incubation twenty-four hours at 37° C.; result in words only
Method: (§1) Detail of excipient starch, talc, magnesium stearate. Pharmacological Study of the Products of the Invention Method of Dilutions in a Liquid Medium
(§2) A series of tubes is prepared in which the same quantity of sterile nutritive medium is distributed. Increasing quantities of the product to be studied are distributed into each tube, then each tube is seeded with a bacterial strain. After incubation for twenty-four hours in a heating chamber at 37° C., the growth inhibition is evaluated by transillumination, which allows the minimal inhibitory concentrations (M.I.C.) to be determined, expressed in micrograms/cm^3.

S. aureus = S. aureus strains; incubation twenty-four hours at 37° C.; result in words only
Method: as §1, §2

S. pyogenes = S. pyogenes strains; incubation twenty-four hours at 37° C.; result in words only
Method: as §1, §2

Measured: activity (growth inhibition, minimal inhibitory concentrations M.I.C.)

CCCCCCCCCCCCCCCC(=O)NC[C@@H](O[C@@H]1O[C@H](CN)[C@@H](O)[C@H]1O)[C@@H]1C[C@@H](O)[C@H](n2ccc(=O)[nH]c2=O)O1 [Example 1, 1-[5-O-(5-amino-5-deoxy-β-D-ribofuranosyl)-3,6-dideoxy-6-[(1-oxohexadecyl)amino]-β-D-ribo-hexofuranosyl]-2,4-(1H,3H)-pyrimidinedione]
good activity: all assays above
